Measurements reported in patent publication US6737383B1, “Herbicidal oxadiazolidines” (priority 1999, dated 2004).

Assays:
[1] = system: rape; assay: Test B pre/postemergence rape; assay type: in vivo, Brassica napus; settings: for Rape plant response rating: scale of 0 to 10 where 0 is no effect and 10 is complete control
In short: (§1)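 Test chemicals in a non-phytotoxic solvent mixture with surfactant were sprayed preemergence onto planted seeds and postemergence onto plants 2 to 18 cm tall (1- to 4-leaf stage). After twelve to sixteen days in a greenhouse, injury was visually rated against untreated controls from 0 (no effect) to 10 (complete control).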

[2] = system: soybean; assay: Test B pre/postemergence soybean; assay type: in vivo, Glycine max
In short: as §1

[3] = system: sugar beet; assay: Test B pre/postemergence sugar beet; assay type: in vivo, Beta vulgaris; settings: for Sugarbeets plant response rating: scale of 0 to 10 where 0 is no effect and 10 is complete control
In short: as §1

[4] = system: velvetleaf; assay: Test B pre/postemergence velvetleaf; assay type: in vivo, Abutilon theophrasti; settings: for Velvetleaf plant response rating: scale of 0 to 10 where 0 is no effect and 10 is complete control
In short: as §1

[5] = system: wild oat; assay: Test B pre/postemergence wild oat; assay type: in vivo, Avena fatua; settings: for Wild oats plant response rating: scale of 0 to 10 where 0 is no effect and 10 is complete control
In short: as §1

[6] = system: cocklebur; assay: Test B pre/postemergence cocklebur; assay type: in vivo, Xanthium strumarium; settings: for Cocklebur plant response rating: scale of 0 to 10 where 0 is no effect and 10 is complete control
In short: as §1

[7] = system: morningglory; assay: Test B pre/postemergence morningglory; assay type: in vivo, Ipomoea hederacea; settings: for Morningglory plant response rating: scale of 0 to 10 where 0 is no effect and 10 is complete control
In short: as §1

[8] = system: corn; assay: Test B pre/postemergence corn; assay type: in vivo, Zea mays; settings: for Corn plant response rating: scale of 0 to 10 where 0 is no effect and 10 is complete control
In short: as §1

[9] = system: giant foxtail; assay: Test B pre/postemergence giant foxtail; assay type: in vivo, Setaria faberii; settings: for Giant foxtail plant response rating: scale of 0 to 10 where 0 is no effect and 10 is complete control
In short: as §1

[10] = system: crabgrass; assay: Test B pre/postemergence crabgrass; assay type: in vivo, Digitaria sanguinalis; settings: for Crabgrass plant response rating: scale of 0 to 10 where 0 is no effect and 10 is complete control
In short: as §1

[11] = system: surinam grass; assay: Test B pre/postemergence surinam grass; assay type: in vivo, Brachiaria decumbens
In short: as §1

[12] = system: blackgrass; assay: Test B pre/postemergence blackgrass; assay type: in vivo, Alopecurus myosuroides
In short: as §1

[13] = system: purple nutsedge; assay: Test B pre/postemergence purple nutsedge; assay type: in vivo, Cyperus rotundus; settings: for Nutsedge plant response rating: scale of 0 to 10 where 0 is no effect and 10 is complete control
In short: as §1

[14] = system: pigweed; assay: Test B pre/postemergence pigweed; assay type: in vivo, Amaranthus retroflexus; settings: for Redroot pigweed plant response rating: scale of 0 to 10 where 0 is no effect and 10 is complete control
In short: as §1

[15] = system: smallflower flatsedge; assay: Test B flood test smallflower flatsedge; assay type: in vivo, Cyperus difformis
In short: (§2)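 Flood test on plants grown to the 2-leaf stage; treated plants kept in greenhouse twelve to sixteen days, then visually rated against controls on a 0 (no effect) to 10 (complete control) scale.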

[16] = system: bamyardgrass; assay: Test B flood test barnyardgrass; assay type: in vivo, Echinochloa crus-galli
In short: as §2

[17] = Postemergence, Rate 125 g/ha, scale 0 to 10, 0 is no effect, 10 is complete control
[18] = Preemergence, Rate 62 g/ha, scale 0 to 10 (0 no effect, 10 complete control)
[19] = Rate 500 g/ha, Postemergence, scale 0 to 10, 0 no effect, 10 complete control
[20] = Rate 62 g/ha, Postemergence, scale of 0 to 10 where 0 is no effect and 10 is complete control
[21] = Preemergence, Rate 250 g/ha, scale of 0 to 10 where 0 is no effect and 10 is complete control
[22] = Preemergence, Rate 500 g/ha, scale of 0 to 10 where 0 is no effect and 10 is complete control
[23] = Rate 250 g/ha, Postemergence, scale of 0 to 10 where 0 is no effect and 10 is complete control
[24] = Postemergence (flood test), Rate 125 g/ha, scale 0 to 10, 0 is no effect, 10 is complete control
[25] = Rate 62 g/ha, Postemergence (flood test species), scale of 0 to 10 where 0 is no effect and 10 is complete control
[26] = Rate 500 g/ha, listed under Postemergence (flood test species), scale 0 to 10, 0 no effect, 10 complete control

CC(C)N(C(=O)n1oc(=O)n(C2CCCO2)c1=O)c1ccc(F)cc1 (centres unmarked) [Compound 345]
0: Plant response rating, Rape [1, 17] | Plant response rating, Rape [1, 18] | Rape plant response rating (0 to 10 scale) ([1]; Preemergence, Rate 125 g/ha) | Rape plant response rating ([1]; Preemergence, Rate 250 g/ha) | Rape plant response rating ([1]; Preemergence, Rate 500 g/ha) | Rape plant response rating ([1]; Rate 62 g/ha, Postemergence) | Plant response rating, Rape [1, 19] | Plant response rating, Soybean [2, 17] | Soybean plant response rating (0 to 10 scale) ([2]; Preemergence, Rate 125 g/ha) | Soybean plant response rating [2, 20] | Plant response rating, Soybean [2, 19] | Plant response rating, Sugarbeets [3, 17] | Plant response rating, Sugarbeets [3, 18] | Sugarbeets plant response rating (0 to 10 scale) ([3]; Preemergence, Rate 125 g/ha) | Sugarbeets plant response rating ([3]; Preemergence, Rate 250 g/ha) | Sugarbeets plant response rating ([3]; Preemergence, Rate 500 g/ha) | Sugarbeets plant response rating ([3]; Rate 62 g/ha, Postemergence) | Plant response rating, Sugarbeets [3, 19] | Plant response rating, Velvetleaf [4, 17] | Plant response rating, Velvetleaf [4, 18] | Velvetleaf plant response rating (0 to 10 scale) ([4]; Preemergence, Rate 125 g/ha) | Velvetleaf plant response rating ([4]; Preemergence, Rate 250 g/ha) | Velvetleaf plant response rating ([4]; Preemergence, Rate 500 g/ha) | Velvetleaf plant response rating ([4]; Rate 62 g/ha, Postemergence) | Plant response rating, Velvetleaf [4, 19] | Plant response rating, Wild oats [5, 17] | Plant response rating, Wild oats [5, 18] | Wild oats plant response rating (0 to 10 scale) ([5]; Preemergence, Rate 125 g/ha) | Wild oats plant response rating ([5]; Preemergence, Rate 250 g/ha) | Wild oats plant response rating ([5]; Preemergence, Rate 500 g/ha) | Wild oats plant response rating ([5]; Rate 62 g/ha, Postemergence) | Plant response rating, Wild oats [5, 19] | Plant response rating, Cocklebur [6, 17] | Plant response rating, Cocklebur [6, 18] | Cocklebur plant response rating (0 to 10 scale) ([6]; Preemergence, Rate 125 g/ha) | Cocklebur plant response rating ([6]; Preemergence, Rate 250 g/ha) | Cocklebur plant response rating ([6]; Preemergence, Rate 500 g/ha) | Cocklebur plant response rating ([6]; Rate 62 g/ha, Postemergence) | Plant response rating, Cocklebur [6, 19] | Plant response rating, Morningglory [7, 17] | Plant response rating, Morningglory [7, 18] | Morningglory plant response rating (0 to 10 scale) ([7]; Preemergence, Rate 125 g/ha) | Morningglory plant response rating ([7]; Preemergence, Rate 250 g/ha) | Morningglory plant response rating ([7]; Preemergence, Rate 500 g/ha) | Morningglory plant response rating ([7]; Rate 62 g/ha, Postemergence) | Plant response rating, Morningglory [7, 19] | Plant response rating, Corn [8, 17] | Plant response rating, Corn [8, 18] | Corn plant response rating (0 to 10 scale) ([8]; Preemergence, Rate 125 g/ha) | Corn plant response rating ([8]; Preemergence, Rate 250 g/ha) | Corn plant response rating ([8]; Preemergence, Rate 500 g/ha) | Corn plant response rating ([8]; Rate 62 g/ha, Postemergence) | Plant response rating, Corn [8, 19] | Plant response rating, Giant foxtail [9, 17] | Plant response rating, Giant foxtail [9, 18] | Giant foxtail plant response rating (0 to 10 scale) ([9]; Preemergence, Rate 125 g/ha) | Giant foxtail plant response rating ([9]; Preemergence, Rate 250 g/ha) | Giant foxtail plant response rating ([9]; Preemergence, Rate 500 g/ha) | Giant foxtail plant response rating ([9]; Rate 62 g/ha, Postemergence) | Plant response rating, Giant foxtail [9, 19] | Plant response rating, Crabgrass [10, 17] | Plant response rating, Crabgrass [10, 18] | Crabgrass plant response rating (0 to 10 scale) ([10]; Preemergence, Rate 125 g/ha) | Crabgrass plant response rating ([10]; Preemergence, Rate 250 g/ha) | Crabgrass plant response rating ([10]; Preemergence, Rate 500 g/ha) | Crabgrass plant response rating ([10]; Rate 62 g/ha, Postemergence) | Plant response rating, Crabgrass [10, 19] | Plant response rating, B. signalgrass [11, 17] | Plant response rating, B. signalgrass [11, 18] | B. signalgrass plant response rating (0 to 10 scale, 0 is no effect, 10 is complete control) ([11]; Preemergence, Rate 125 g/ha) | B. signalgrass plant response rating [11, 21] | B. signalgrass plant response rating [11, 22] | B. signalgrass plant response rating [11, 20] | Plant response rating, B. signalgrass [11, 23] | Plant response rating, B. signalgrass [11, 19] | Plant response rating, Blackgrass [12, 17] | Plant response rating, Blackgrass [12, 18] | Blackgrass plant response rating (0 to 10 scale) ([12]; Preemergence, Rate 125 g/ha) | Blackgrass plant response rating [12, 21] | Blackgrass plant response rating [12, 22] | Blackgrass plant response rating [12, 20] | Plant response rating, Blackgrass [12, 23] | Plant response rating, Blackgrass [12, 19] | Plant response rating, Nutsedge [13, 17] | Plant response rating, Nutsedge [13, 18] | Nutsedge plant response rating (0 to 10 scale) ([13]; Preemergence, Rate 125 g/ha) | Nutsedge plant response rating ([13]; Preemergence, Rate 250 g/ha) | Nutsedge plant response rating ([13]; Preemergence, Rate 500 g/ha) | Nutsedge plant response rating ([13]; Rate 62 g/ha, Postemergence) | Plant response rating, Nutsedge [13, 19] | Plant response rating, Redroot pigweed [14, 17] | Plant response rating, Redroot pigweed [14, 18] | Redroot pigweed plant response rating (0 to 10 scale) ([14]; Preemergence, Rate 125 g/ha) | Redroot pigweed plant response rating ([14]; Preemergence, Rate 250 g/ha) | Redroot pigweed plant response rating ([14]; Preemergence, Rate 500 g/ha) | Redroot pigweed plant response rating ([14]; Rate 62 g/ha, Postemergence) | Plant response rating, Redroot pigweed [14, 19] | Plant response rating, S. Flatsedge [15, 24] | S. Flatsedge plant response rating [15, 25] | Plant response rating, S. Flatsedge [15, 26] | Plant response rating, Barnyardgrass [16, 24] | Barnyardgrass plant response rating [16, 25] | Plant response rating, Barnyardgrass ([16]; Rate 250 g/ha, Postemergence (flood test species), scale of 0 to 10 where 0 is no effect and 10 is complete control) | Plant response rating, Barnyardgrass [16, 26]
